Test results reported in ChEMBL document CHEMBL5528028, “Discovery of benzopyridone cyanoacetates as new type of potential broad-spectrum antibacterial candidates” (Eur J Med Chem, 2024).
≈ marks a conversion by molar mass, not a printed value.

Assays:
Assay type in all cases: functional
Klebsiella pneumoniae = assay: Antibacterial activity against Klebsiella pneumonia assessed growth inhibition by micro broth dilution method
Escherichia coli [1] = assay: Antibacterial activity against Escherichia coli assessed growth inhibition by micro broth dilution method
Staphylococcus aureus [2] = assay: Antibacterial activity against methicillin-resistant Staphylococcus aureus assessed growth inhibition by micro broth dilution method
Enterococcus faecalis = assay: Antibacterial activity against Enterococcus faecalis assessed growth inhibition by micro broth dilution method
Escherichia coli [3] = assay: Antibacterial activity against Escherichia coli ATCC 25922 assessed growth inhibition by micro broth dilution method
Pseudomonas aeruginosa [4] = assay: Antibacterial activity against Pseudomonas aeruginosa ATCC 27853 assessed growth inhibition by micro broth dilution method
Staphylococcus aureus [5] = assay: Antibacterial activity against Staphylococcus aureus ATCC 29213 assessed growth inhibition by micro broth dilution method
Acinetobacter baumannii = assay: Antibacterial activity against Acinetobacter baumannii assessed growth inhibition by micro broth dilution method
Pseudomonas aeruginosa [6] = assay: Antibacterial activity against Pseudomonas aeruginosa assessed growth inhibition by micro broth dilution method
Staphylococcus aureus [7] = assay: Antibacterial activity against Staphylococcus aureus assessed growth inhibition by micro broth dilution method
Staphylococcus aureus [8] = assay: Antibacterial activity against Staphylococcus aureus ATCC 25923 assessed growth inhibition by micro broth dilution method

CCOC(=O)c1cn(Cc2ccc([N+](=O)[O-])cc2)c2cc(F)c(F)cc2c1=O
MIC (Klebsiella pneumoniae): 256 µg/mL (≈ 659 µM) | MIC (Escherichia coli [1]): 2 µg/mL (≈ 5.15 µM) | MIC (Staphylococcus aureus [2]): 256 µg/mL (≈ 659 µM) | MIC (Enterococcus faecalis): 256 µg/mL (≈ 659 µM) | MIC (Escherichia coli [3]): 128 µg/mL (≈ 330 µM) | MIC (Pseudomonas aeruginosa [4]): 256 µg/mL (≈ 659 µM) | MIC (Staphylococcus aureus [5]): 256 µg/mL (≈ 659 µM) | MIC (Acinetobacter baumannii): 16 µg/mL (≈ 41.2 µM) | MIC (Pseudomonas aeruginosa [6]): 256 µg/mL (≈ 659 µM) | MIC (Staphylococcus aureus [7]): 128 µg/mL (≈ 330 µM) | MIC (Staphylococcus aureus [8]): 256 µg/mL (≈ 659 µM)

CCOC(=O)c1cn(CC)c2cc([C-](C#N)C(=O)OCC)c(F)cc2c1=O.[Na+] (centres undefined)
MIC (Klebsiella pneumoniae): 32 µg/mL | MIC (Escherichia coli [1]): 64 µg/mL | MIC (Staphylococcus aureus [2]): 64 µg/mL | MIC (Enterococcus faecalis): 64 µg/mL | MIC (Escherichia coli [3]): 32 µg/mL | MIC (Pseudomonas aeruginosa [4]): 32 µg/mL | MIC (Staphylococcus aureus [5]): 64 µg/mL | MIC (Acinetobacter baumannii): 32 µg/mL | MIC (Pseudomonas aeruginosa [6]): 32 µg/mL | MIC (Staphylococcus aureus [7]): 256 µg/mL | MIC (Staphylococcus aureus [8]): 2 µg/mL

CCOC(=O)c1cn(CC2CCC2)c2cc([C-](C#N)C(=O)OCC)c(F)cc2c1=O.[Na+] (centres undefined)
MIC (Klebsiella pneumoniae): 8 µg/mL | MIC (Escherichia coli [1]): 64 µg/mL | MIC (Staphylococcus aureus [2]): 16 µg/mL | MIC (Enterococcus faecalis): 2 µg/mL | MIC (Escherichia coli [3]): 2 µg/mL | MIC (Pseudomonas aeruginosa [4]): 8 µg/mL | MIC (Staphylococcus aureus [5]): 8 µg/mL | MIC (Acinetobacter baumannii): 4 µg/mL | MIC (Pseudomonas aeruginosa [6]): 16 µg/mL | MIC (Staphylococcus aureus [7]): 8 µg/mL | MIC (Staphylococcus aureus [8]): 4 µg/mL

CCOC(=O)c1cn(Cc2cnc(Cl)s2)c2cc([C-](C#N)C(=O)OCC)c(F)cc2c1=O.[Na+] (centres undefined)
MIC (Klebsiella pneumoniae): 32 µg/mL | MIC (Escherichia coli [1]): 4 µg/mL | MIC (Staphylococcus aureus [2]): 4 µg/mL | MIC (Enterococcus faecalis): 4 µg/mL | MIC (Escherichia coli [3]): 8 µg/mL | MIC (Pseudomonas aeruginosa [4]): 2 µg/mL | MIC (Staphylococcus aureus [5]): 8 µg/mL | MIC (Acinetobacter baumannii): 16 µg/mL | MIC (Pseudomonas aeruginosa [6]): 64 µg/mL | MIC (Staphylococcus aureus [7]): 32 µg/mL | MIC (Staphylococcus aureus [8]): 4 µg/mL

CCOC(=O)c1cn(Cc2ccccc2)c2cc(F)c(F)cc2c1=O
MIC (Klebsiella pneumoniae): 256 µg/mL (≈ 746 µM) | MIC (Escherichia coli [1]): 2 µg/mL (≈ 5.83 µM) | MIC (Staphylococcus aureus [2]): 256 µg/mL (≈ 746 µM) | MIC (Enterococcus faecalis): 128 µg/mL (≈ 373 µM) | MIC (Escherichia coli [3]): 128 µg/mL (≈ 373 µM) | MIC (Pseudomonas aeruginosa [4]): 256 µg/mL (≈ 746 µM) | MIC (Staphylococcus aureus [5]): 256 µg/mL (≈ 746 µM) | MIC (Acinetobacter baumannii): 2 µg/mL (≈ 5.83 µM) | MIC (Pseudomonas aeruginosa [6]): 256 µg/mL (≈ 746 µM) | MIC (Staphylococcus aureus [7]): 128 µg/mL (≈ 373 µM) | MIC (Staphylococcus aureus [8]): 256 µg/mL (≈ 746 µM)

CCOC(=O)c1cn(Cc2ccc(C)cc2)c2cc(F)c(F)cc2c1=O
MIC (Klebsiella pneumoniae): 128 µg/mL (≈ 358 µM) | MIC (Escherichia coli [1]): 1 µg/mL (≈ 2.8 µM) | MIC (Staphylococcus aureus [2]): 256 µg/mL (≈ 716 µM) | MIC (Enterococcus faecalis): 64 µg/mL (≈ 179 µM) | MIC (Escherichia coli [3]): 128 µg/mL (≈ 358 µM) | MIC (Pseudomonas aeruginosa [4]): 256 µg/mL (≈ 716 µM) | MIC (Staphylococcus aureus [5]): 128 µg/mL (≈ 358 µM) | MIC (Acinetobacter baumannii): 2 µg/mL (≈ 5.6 µM) | MIC (Pseudomonas aeruginosa [6]): 128 µg/mL (≈ 358 µM) | MIC (Staphylococcus aureus [7]): 64 µg/mL (≈ 179 µM) | MIC (Staphylococcus aureus [8]): 64 µg/mL (≈ 179 µM)

CCOC(=O)c1cn(Cc2ccccn2)c2cc([C-](C#N)C(=O)OCC)c(F)cc2c1=O.[Na+] (centres undefined)
MIC (Klebsiella pneumoniae): 256 µg/mL | MIC (Escherichia coli [1]): 256 µg/mL | MIC (Staphylococcus aureus [2]): 256 µg/mL | MIC (Enterococcus faecalis): 256 µg/mL | MIC (Escherichia coli [3]): 128 µg/mL | MIC (Pseudomonas aeruginosa [4]): 128 µg/mL | MIC (Staphylococcus aureus [5]): 256 µg/mL | MIC (Acinetobacter baumannii): 256 µg/mL | MIC (Pseudomonas aeruginosa [6]): 128 µg/mL | MIC (Staphylococcus aureus [7]): 256 µg/mL | MIC (Staphylococcus aureus [8]): 256 µg/mL

CCOC(=O)c1cn(Cc2ccccc2)c2cc([C-](C#N)C(=O)OCC)c(F)cc2c1=O.[Na+] (centres undefined)
MIC (Klebsiella pneumoniae): 4 µg/mL | MIC (Escherichia coli [1]): 4 µg/mL | MIC (Staphylococcus aureus [2]): 256 µg/mL | MIC (Enterococcus faecalis): 64 µg/mL | MIC (Escherichia coli [3]): 2 µg/mL | MIC (Pseudomonas aeruginosa [4]): 4 µg/mL | MIC (Staphylococcus aureus [5]): 4 µg/mL | MIC (Acinetobacter baumannii): 8 µg/mL | MIC (Pseudomonas aeruginosa [6]): 32 µg/mL | MIC (Staphylococcus aureus [7]): 64 µg/mL | MIC (Staphylococcus aureus [8]): 0.5 µg/mL

CCOC(=O)c1cn2c3c(c(F)c(F)cc3c1=O)OC[C@@H]2C
MIC (Klebsiella pneumoniae): 32 µg/mL (≈ 103 µM) | MIC (Escherichia coli [1]): 16 µg/mL (≈ 51.7 µM) | MIC (Staphylococcus aureus [2]): 64 µg/mL (≈ 207 µM) | MIC (Enterococcus faecalis): 128 µg/mL (≈ 414 µM) | MIC (Escherichia coli [3]): 128 µg/mL (≈ 414 µM) | MIC (Pseudomonas aeruginosa [4]): 256 µg/mL (≈ 828 µM) | MIC (Staphylococcus aureus [5]): 64 µg/mL (≈ 207 µM) | MIC (Acinetobacter baumannii): 32 µg/mL (≈ 103 µM) | MIC (Pseudomonas aeruginosa [6]): 128 µg/mL (≈ 414 µM) | MIC (Staphylococcus aureus [7]): 128 µg/mL (≈ 414 µM) | MIC (Staphylococcus aureus [8]): 32 µg/mL (≈ 103 µM)

CCOC(=O)c1cn(CC=C(C)C)c2cc(F)c(F)cc2c1=O
MIC (Klebsiella pneumoniae): 32 µg/mL (≈ 99.6 µM) | MIC (Escherichia coli [1]): 8 µg/mL (≈ 24.9 µM) | MIC (Staphylococcus aureus [2]): 256 µg/mL (≈ 797 µM) | MIC (Enterococcus faecalis): 128 µg/mL (≈ 398 µM) | MIC (Escherichia coli [3]): 64 µg/mL (≈ 199 µM) | MIC (Pseudomonas aeruginosa [4]): 256 µg/mL (≈ 797 µM) | MIC (Staphylococcus aureus [5]): 128 µg/mL (≈ 398 µM) | MIC (Acinetobacter baumannii): 256 µg/mL (≈ 797 µM) | MIC (Pseudomonas aeruginosa [6]): 64 µg/mL (≈ 199 µM) | MIC (Staphylococcus aureus [7]): 128 µg/mL (≈ 398 µM) | MIC (Staphylococcus aureus [8]): 64 µg/mL (≈ 199 µM)

CCOC(=O)c1cn(Cc2ccc(C)cc2)c2cc([C-](C#N)C(=O)OCC)c(F)cc2c1=O.[Na+] (centres undefined)
MIC (Klebsiella pneumoniae): 2 µg/mL | MIC (Escherichia coli [1]): 1 µg/mL | MIC (Staphylococcus aureus [2]): 64 µg/mL | MIC (Enterococcus faecalis): 16 µg/mL | MIC (Escherichia coli [3]): 1 µg/mL | MIC (Pseudomonas aeruginosa [4]): 1 µg/mL | MIC (Staphylococcus aureus [5]): 0.5 µg/mL | MIC (Acinetobacter baumannii): 2 µg/mL | MIC (Pseudomonas aeruginosa [6]): 8 µg/mL | MIC (Staphylococcus aureus [7]): 32 µg/mL | MIC (Staphylococcus aureus [8]): 0.5 µg/mL

CCOC(=O)c1cn(C)c2cc(F)c(F)cc2c1=O
MIC (Klebsiella pneumoniae): 64 µg/mL (≈ 239 µM) | MIC (Escherichia coli [1]): 16 µg/mL (≈ 59.9 µM) | MIC (Staphylococcus aureus [2]): 256 µg/mL (≈ 958 µM) | MIC (Enterococcus faecalis): 128 µg/mL (≈ 479 µM) | MIC (Escherichia coli [3]): 128 µg/mL (≈ 479 µM) | MIC (Pseudomonas aeruginosa [4]): 256 µg/mL (≈ 958 µM) | MIC (Staphylococcus aureus [5]): 128 µg/mL (≈ 479 µM) | MIC (Acinetobacter baumannii): 256 µg/mL (≈ 958 µM) | MIC (Pseudomonas aeruginosa [6]): 64 µg/mL (≈ 239 µM) | MIC (Staphylococcus aureus [7]): 128 µg/mL (≈ 479 µM) | MIC (Staphylococcus aureus [8]): 256 µg/mL (≈ 958 µM)

CCOC(=O)c1cn(CC2CCC2)c2cc(F)c(F)cc2c1=O
MIC (Klebsiella pneumoniae): 32 µg/mL (≈ 99.6 µM) | MIC (Escherichia coli [1]): 16 µg/mL (≈ 49.8 µM) | MIC (Staphylococcus aureus [2]): 256 µg/mL (≈ 797 µM) | MIC (Enterococcus faecalis): 128 µg/mL (≈ 398 µM) | MIC (Escherichia coli [3]): 128 µg/mL (≈ 398 µM) | MIC (Pseudomonas aeruginosa [4]): 256 µg/mL (≈ 797 µM) | MIC (Staphylococcus aureus [5]): 256 µg/mL (≈ 797 µM) | MIC (Acinetobacter baumannii): 128 µg/mL (≈ 398 µM) | MIC (Pseudomonas aeruginosa [6]): 32 µg/mL (≈ 99.6 µM) | MIC (Staphylococcus aureus [7]): 64 µg/mL (≈ 199 µM) | MIC (Staphylococcus aureus [8]): 16 µg/mL (≈ 49.8 µM)

CCOC(=O)c1cn(CC)c2cc(C(C#N)C(=O)OCC)c(F)cc2c1=O (centres undefined)
MIC (Klebsiella pneumoniae): 8 µg/mL (≈ 21.4 µM) | MIC (Escherichia coli [1]): 16 µg/mL (≈ 42.7 µM) | MIC (Staphylococcus aureus [2]): 256 µg/mL (≈ 684 µM) | MIC (Enterococcus faecalis): 32 µg/mL (≈ 85.5 µM) | MIC (Escherichia coli [3]): 16 µg/mL (≈ 42.7 µM) | MIC (Pseudomonas aeruginosa [4]): 8 µg/mL (≈ 21.4 µM) | MIC (Staphylococcus aureus [5]): 16 µg/mL (≈ 42.7 µM) | MIC (Acinetobacter baumannii): 32 µg/mL (≈ 85.5 µM) | MIC (Pseudomonas aeruginosa [6]): 8 µg/mL (≈ 21.4 µM) | MIC (Staphylococcus aureus [7]): 32 µg/mL (≈ 85.5 µM) | MIC (Staphylococcus aureus [8]): 8 µg/mL (≈ 21.4 µM)
